Where a name gives a salt, the structure may show the parent alone.

For orientation: IC50 means the concentration that inhibits the measured activity by half.

The target in this test is T1, human recombinant P2X7 receptor (Homo sapiens, UniProt Q99572).
T1 construct: expressed in transfected cells
T1 sequence (Q99572 1-595): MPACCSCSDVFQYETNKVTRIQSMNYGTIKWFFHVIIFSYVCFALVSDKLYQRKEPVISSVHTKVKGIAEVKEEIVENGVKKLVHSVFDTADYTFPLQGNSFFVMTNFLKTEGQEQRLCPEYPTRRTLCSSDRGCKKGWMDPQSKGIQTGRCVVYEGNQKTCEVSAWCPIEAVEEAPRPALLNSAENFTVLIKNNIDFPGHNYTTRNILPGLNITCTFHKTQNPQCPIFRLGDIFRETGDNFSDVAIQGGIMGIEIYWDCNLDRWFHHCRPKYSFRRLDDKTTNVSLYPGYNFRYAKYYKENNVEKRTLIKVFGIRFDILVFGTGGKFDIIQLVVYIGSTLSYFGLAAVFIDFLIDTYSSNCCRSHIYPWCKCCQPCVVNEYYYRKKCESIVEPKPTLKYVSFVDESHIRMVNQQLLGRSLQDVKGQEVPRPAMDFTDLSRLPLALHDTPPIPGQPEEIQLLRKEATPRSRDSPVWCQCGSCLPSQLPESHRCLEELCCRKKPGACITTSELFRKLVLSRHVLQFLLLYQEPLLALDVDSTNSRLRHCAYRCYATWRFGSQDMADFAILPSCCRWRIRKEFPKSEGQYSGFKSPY
The test is described as follows: YO-PRO assay: P2X7 receptor antagonistic activity in HEK cells stably expressing P2X7. Format: cell-based. The note with it: antagonistic activity with respect to the P2X7 receptor, read-out: IC50. Here is the method:
The P2X7 receptor antagonistic activity of the compounds of formula (I) is determined in accordance with the following experimental method.
Cell Line Generation and YO-PRO Assay
Cell line generation was performed in general according to established molecular cloning protocols. Specifically, RNA was extracted from human whole blood using the Qiagen RNeasy kit (Qiagen, CH) according to the manufacturer's instructions. Subsequently cDNA was made (Superscript II, Invitrogen AG, CH) and the human P2X7 gene (genbank ref. BC011913) was amplified with the following primers: […] and […]. The amplified sequence was subsequently ligated into a pcDNA3.1 (+) NotI, NheI digested plasmid. Human embryonic kidney (HEK) cells (ATCC CRL—1573, Manassas, Va., USA) were transfected with the pcDNA3.1 (+).hP2X7 plasmid using lipofectamine 2000 (Invitrogen AG, CH) according to the manufacturer's instructions. Following a 24 h exposure to DNA, cells were trypsinized and re-seeded at low density in the presence of 250 μg Geneticin. Geneticin resistant cells were then selected during two consecutive rounds of cloning by serial limiting dilution with visual inspection. Individual clones were screened for P2X7 expression by applying ATP and recording the resultant uptake of YO-PRO1. Specific cell clones were chosen based on RNA and protein expression. HEK cells stably expressing P2X7 were used to screen drugs using the YO-PRO1 assay. Cells were grown to confluency in adherent culture at 37° C. in a humidified 5% CO2 incubator (split 1/5 every 3-4 days with DMEM, 10% FCS, 1% Penicillin/Streptomycin, 250 μg/ml Geneticin). Adherent cells were detached by incubation with Trypsine (1 ml per 165 cm^2 dish) for 2 minutes, then washed off with 10 ml PBS (without Mg^2+ and Ca^2+), and resuspended in DMEM, 10% FCS, 1% Penicillin/Streptomycin, no Geneticin. 10′000 cells per well (48 hours before the assay) or 25′000 cells per well (Vi-cell XR (Beckman Coulter) (24 hours before the assay) in 50 μl full medium were seeded on 384-well black-wall, clear bottom plates, that were coated before with 10 μl per well Poly-L-Lysine, incubated for 30-60 minutes at 37° C. and washed once with PBS. Medium was removed from cells and 50 μl of assay buffer containing 0.5 μM YO-PRO-1 was added into the wells. Solutions of antagonist compounds were prepared by serial dilutions of a 10 mM DMSO solution of the antagonist into PBS using a BioMek (Beckman Coulter). Each concentration was performed in duplicate. For IC50 measurements 10 concentration points were measured (10 μM being the highest concentration followed by 9 serial dilution steps 1/3). The cells were incubated with the antagonists of the present invention together with ATP at a final concentration of 250 μM for 90 minutes. During this time period, four time points were taken. Each time point comprised the average of several measurements made within a few seconds. Fluorescence was measured in the FLIPR tetra (Molecular Devices) using the filters appropriate for YO-PRO-1 fluorescence (excitation 485/20, emission 530/25). The FLIPR tetra was equipped with Molecular Devices Screen Works system control software to define and run experimental protocols. […] For IC50 measurements the maximum intensity is plotted against the concentration of compound to determine IC50 values.
As to `Cc1ncc([C@H](CNC(=O)c2ccc3[nH]ccc3c2Cl)N2CCCCC2C)cn1` (mixture of isomers) [Example 77, 4-Chloro-1H-indole-5-carboxylic acid [(R)-2-(2-methyl-piperidin-1-yl)-2-(2-methyl-pyrimidin-5-yl)-ethyl]-amide], the IC50 turned out to be 0.087 µM.

Take `O=C(NCC(c1cnc(C(F)(F)F)nc1)N1CCOCC1)c1ccc2[nH]ccc2c1Cl` (racemic) [Example 1, rac-4-Chloro-1H-indole-5-carboxylic acid [2-morpholin-4-yl-2-(2-trifluoromethyl-pyrimidin-5-yl)-ethyl]-amide]: the IC50 came out at 0.0039 µM.

Regarding `O=C(NCC(c1ccc(Cl)nc1)N1CCC(F)(F)CC1)c1ccc2[nH]ccc2c1Cl` (racemic) [Example 2, rac-4-Chloro-1H-indole-5-carboxylic acid [2-(6-chloro-pyridin-3-yl)-2-(4,4-difluoro-piperidin-1-yl)-ethyl]-amide], the 50% inhibitory concentration (IC50) worked out at 0.0043 µM.

In the case of `Cc1ccc(C(CNC(=O)c2ccc3[nH]ccc3c2Cl)N2CCOCC2)cn1` (racemic) [Example 7, rac-4-Chloro-1H-indole-5-carboxylic acid [2-(6-methyl-pyridin-3-yl)-2-morpholin-4-yl-ethyl]-amide], the concentration for half-maximal inhibition (IC50) is 0.019 µM.

In the case of `O=C(NCC(c1cnc(C(F)(F)F)nc1)N1CCC(F)(F)CC1)c1ccc2[nH]ccc2c1Cl` (racemic) [Example 8, rac-4-Chloro-1H-indole-5-carboxylic acid [2-(4,4-difluoro-piperidin-1-yl)-2-(2-trifluoromethyl-pyrimidin-5-yl)-ethyl]-amide], the IC50 worked out at 0.012 µM.

For `O=C(NCC(c1cnc(C2CC2)nc1)N1CCOCC1)c1ccc2[nH]ccc2c1Cl` (racemic) [Example 9, rac-4-Chloro-1H-indole-5-carboxylic acid [2-(2-cyclopropyl-pyrimidin-5-yl)-2-morpholin-4-yl-ethyl]-amide], the concentration for half-maximal inhibition (IC50) came out at 0.0077 µM.

Turning to `O=C(NCC(c1ccc(C(F)(F)F)nc1)N1CCOCC1)c1ccc2[nH]ccc2c1Cl` (racemic) [Example 10, rac-4-Chloro-1H-indole-5-carboxylic acid [2-morpholin-4-yl-2-(6-trifluoromethyl-pyridin-3-yl)-ethyl]-amide], the concentration for half-maximal inhibition (IC50) turned out to be 0.0051 µM.

Regarding `COc1ccc(C(CNC(=O)c2ccc3[nH]ccc3c2Cl)N2CCOCC2)cn1` (racemic) [Example 11, rac-4-Chloro-1H-indole-5-carboxylic acid [2-(6-methoxy-pyridin-3-yl)-2-morpholin-4-yl-ethyl]-amide], the IC50 is 0.014 µM.

`Cc1ncc(C(CNC(=O)c2ccc3[nH]ccc3c2Cl)N(C)C)cn1` (racemic) [Example 12, rac-4-Chloro-1H-indole-5-carboxylic acid [2-dimethylamino-2-(2-methyl-pyrimidin-5-yl)-ethyl]-amide]: the IC50 amounted to 2.3 µM.

As for `Cc1ncc(C(CNC(=O)c2ccc3[nH]ccc3c2Cl)N2CCC2)cn1` (racemic) [Example 13, rac-4-Chloro-1H-indole-5-carboxylic acid [2-azetidin-1-yl-2-(2-methyl-pyrimidin-5-yl)-ethyl]-amide], the IC50 came to 0.831 µM.

For `Cc1ncc(C(CNC(=O)c2ccc3[nH]ccc3c2Cl)N2CCCC2)cn1` (racemic) [Example 14, rac-4-Chloro-1H-indole-5-carboxylic acid [2-(2-methyl-pyrimidin-5-yl)-2-pyrrolidin-1-yl-ethyl]-amide], the concentration for half-maximal inhibition (IC50) worked out at 0.286 µM.

With `CCN(CC)C(CNC(=O)c1ccc2[nH]ccc2c1Cl)c1cnc(C)nc1` (racemic) [Example 15, rac-4-Chloro-1H-indole-5-carboxylic acid [2-diethylamino-2-(2-methyl-pyrimidin-5-yl)-ethyl]-amide], the IC50 turned out to be 0.085 µM.

As for `Cc1ncc(C(CNC(=O)c2ccc3[nH]ccc3c2Cl)N2CCCCC2)cn1` (racemic) [Example 16, rac-4-Chloro-1H-indole-5-carboxylic acid [2-(2-methyl-pyrimidin-5-yl)-2-piperidin-1-yl-ethyl]-amide], the IC50 was found to be 0.0097 µM.

For `O=C(NCC(c1ccc(F)cc1)N1CCOCC1)c1ccc2[nH]ccc2c1Cl` (racemic) [Example 17, rac-4-Chloro-1H-indole-5-carboxylic acid [2-(4-fluoro-phenyl)-2-morpholin-4-yl-ethyl]-amide], the half-maximal inhibitory concentration (IC50) was 0.0092 µM.

Consider `O=C(NCC(c1cc(F)cc(F)c1)N1CCOCC1)c1ccc2[nH]ccc2c1Cl` (racemic) [Example 18, rac-4-Chloro-1H-indole-5-carboxylic acid [2-(3,5-difluoro-phenyl)-2-morpholin-4-yl-ethyl]-amide], for which the IC50 is 0.019 µM.

Consider `CC(C)(C)OC(=O)N1CCC(C(CNC(=O)c2ccc3[nH]ccc3c2Cl)c2cccnc2)CC1` (racemic) [Example 19, rac-4-{2-[(4-Chloro-1H-indole-5-carbonyl)-amino]-1-pyridin-3-yl-ethyl}-piperidine-1-carboxylic acid tent-butyl ester], for which the IC50 turned out to be 0.035 µM.

With `O=C(NCC(c1cccnc1)C1CCNCC1)c1ccc2[nH]ccc2c1Cl` (racemic) [Example 20, rac-4-Chloro-1H-indole-5-carboxylic acid (2-piperidin-4-yl-2-pyridin-3-yl-ethyl)-amide dihydrochloride], the IC50 was determined as 0.447 µM.

For `CN1CCC(C(CNC(=O)c2ccc3[nH]ccc3c2Cl)c2cccnc2)CC1` (racemic) [Example 21, rac-4-Chloro-1H-indole-5-carboxylic acid [2-(1-methyl-piperidin-4-yl)-2-pyridin-3-yl-ethyl]-amide formic acid salt], the concentration for half-maximal inhibition (IC50) is 0.584 µM.

Consider `CC(=O)N1CCC(C(CNC(=O)c2ccc3[nH]ccc3c2Cl)c2cccnc2)CC1` (racemic) [Example 22, rac-4-Chloro-1H-indole-5-carboxylic acid [2-(1-acetyl-piperidin-4-yl)-2-pyridin-3-yl-ethyl]-amide], for which the concentration for half-maximal inhibition (IC50) is 0.126 µM.

On to `CS(=O)(=O)N1CCC(C(CNC(=O)c2ccc3[nH]ccc3c2Cl)c2cccnc2)CC1` (racemic) [Example 23, rac-4-Chloro-1H-indole-5-carboxylic acid [2-(1-methanesulfonyl-piperidin-4-yl)-2-pyridin-3-yl-ethyl]-amide], for which the 50% inhibitory concentration (IC50) was 0.056 µM.

In the case of `O=C(NCC(c1ccc(Cl)nc1)N1CCOCC1)c1ccc2[nH]ccc2c1Cl` (racemic) [Example 24, rac-4-Chloro-1H-indole-5-carboxylic acid [2-(6-chloro-pyridin-3-yl)-2-morpholin-4-yl-ethyl]-amide], the half-inhibitory concentration (IC50) was 0.0047 µM.

`O=C(NCC(c1cccnc1)N1CCOCC1)c1ccc2[nH]ccc2c1Cl` (racemic) [Example 25, rac-4-Chloro-1H-indole-5-carboxylic acid (2-morpholin-4-yl-2-pyridin-3-yl-ethyl)-amide]: the half-maximal inhibitory concentration (IC50) worked out at 0.032 µM.

With `O=C(NCC(c1cncnc1)N1CCOCC1)c1ccc2[nH]ccc2c1Cl` (racemic) [Example 26, rac-4-Chloro-1H-indole-5-carboxylic acid (2-morpholin-4-yl-2-pyrimidin-5-yl-ethyl)-amide], the concentration for half-maximal inhibition (IC50) amounted to 0.01 µM.

For the origin of these results see patent US9718774B2, “Indole carboxamide derivatives as P2X7 receptor antagonist” (ACTELION PHARMACEUTICALS LTD, priority 2012, dated 2017).
